#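 In this assay, cells in 96-well plates receive the compound at five concentrations for 48 hours. Endpoints are linearly interpolated between the surrounding concentrations. At the GI50, growth is halved. TGI marks complete inhibition of growth.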
# Columns and labels:
# Experiment in all cases: NCI-60 cell line screen, 48 h
# 786-0 renal = system: 786-0 renal
# A498 renal = system: A498 renal
# A549 NSCLC = system: A549 NSCLC
# ACHN renal = system: ACHN renal
# BT-549 breast = system: BT-549 breast
# CAKI-1 renal = system: CAKI-1 renal
# CCRF-CEM leukemia = system: CCRF-CEM leukemia
# COLO 205 colon = system: COLO 205 colon
# DU-145 prostate = system: DU-145 prostate
# EKVX NSCLC = system: EKVX NSCLC
# HCC-2998 colon = system: HCC-2998 colon
# HCT-116 colon = system: HCT-116 colon
# HCT-15 colon = system: HCT-15 colon
# HL-60(TB) leukemia = system: HL-60(TB) leukemia
# HOP-62 NSCLC = system: HOP-62 NSCLC
# HOP-92 NSCLC = system: HOP-92 NSCLC
# HS 578T breast = system: HS 578T breast
# HT29 colon = system: HT29 colon
# IGROV1 ovarian = system: IGROV1 ovarian
# K-562 leukemia = system: K-562 leukemia
# KM12 colon = system: KM12 colon
# LOX IMVI melanoma = system: LOX IMVI melanoma
# M14 melanoma = system: M14 melanoma
# MALME-3M melanoma = system: MALME-3M melanoma
# MCF7 breast = system: MCF7 breast
# MDA-MB-231 breast = system: MDA-MB-231 breast
# MDA-MB-435 = system: MDA-MB-435
# MOLT-4 leukemia = system: MOLT-4 leukemia
# NCI-H226 lung = system: NCI-H226 lung
# NCI-H23 lung = system: NCI-H23 lung
# NCI-H460 lung = system: NCI-H460 lung
# NCI-H522 lung = system: NCI-H522 lung
# NCI/ADR-RES ovarian = system: NCI/ADR-RES ovarian
# OVCAR-3 ovarian = system: OVCAR-3 ovarian
# OVCAR-4 ovarian = system: OVCAR-4 ovarian
# OVCAR-5 ovarian = system: OVCAR-5 ovarian
# OVCAR-8 ovarian = system: OVCAR-8 ovarian
# PC-3 prostate = system: PC-3 prostate
# RPMI-8226 leukemia = system: RPMI-8226 leukemia
# RXF 393 renal = system: RXF 393 renal
# SF-268 CNS = system: SF-268 CNS
# SF-295 CNS = system: SF-295 CNS
# SF-539 CNS = system: SF-539 CNS
# SK-MEL-2 melanoma = system: SK-MEL-2 melanoma
# SK-MEL-28 melanoma = system: SK-MEL-28 melanoma
# SK-MEL-5 melanoma = system: SK-MEL-5 melanoma
# SK-OV-3 ovarian = system: SK-OV-3 ovarian
# SN12C renal = system: SN12C renal
# SNB-19 CNS = system: SNB-19 CNS
# SNB-75 CNS = system: SNB-75 CNS
# SR leukemia = system: SR leukemia
# SW-620 colon = system: SW-620 colon
# T-47D breast = system: T-47D breast
# TK-10 renal = system: TK-10 renal
# U251 CNS = system: U251 CNS
# UACC-257 melanoma = system: UACC-257 melanoma
# UACC-62 melanoma = system: UACC-62 melanoma
# UO-31 renal = system: UO-31 renal
smiles,measurement,setting,value
O=C1c2ccccc2-c2c1c1ccc([N+](=O)[O-])cc1c(=O)n2CCNCCCNCCn1c2c(c3ccc([N+](=O)[O-])cc3c1=O)C(=O)c1ccccc1-2,GI50,786-0 renal,51.5 nM
same,TGI,786-0 renal,2920 nM
same,GI50,A498 renal,1820 nM
same,TGI,A498 renal,19100 nM
same,GI50,A549 NSCLC,521 nM
same,TGI,A549 NSCLC,17600 nM
same,GI50,ACHN renal,338 nM
same,TGI,ACHN renal,24500 nM
same,GI50,BT-549 breast,2570 nM
same,TGI,BT-549 breast,50000 nM
same,GI50,CAKI-1 renal,822 nM
same,TGI,CAKI-1 renal,21700 nM
same,GI50,CCRF-CEM leukemia,6.45 nM
same,TGI,CCRF-CEM leukemia,3970 nM
same,GI50,COLO 205 colon,433 nM
same,TGI,COLO 205 colon,9770 nM
same,GI50,DU-145 prostate,960 nM
same,TGI,DU-145 prostate,21100 nM
same,GI50,EKVX NSCLC,4870 nM
same,TGI,EKVX NSCLC,28200 nM
same,GI50,HCC-2998 colon,992 nM
same,TGI,HCC-2998 colon,13300 nM
same,GI50,HCT-116 colon,129 nM
same,TGI,HCT-116 colon,4500 nM
same,GI50,HCT-15 colon,197 nM
same,TGI,HCT-15 colon,16100 nM
same,GI50,HL-60(TB) leukemia,1500 nM
same,TGI,HL-60(TB) leukemia,50000 nM
same,GI50,HOP-62 NSCLC,742 nM
same,TGI,HOP-62 NSCLC,7510 nM
same,GI50,HOP-92 NSCLC,803 nM
same,TGI,HOP-92 NSCLC,4160 nM
same,GI50,HS 578T breast,1340 nM
same,TGI,HS 578T breast,31400 nM
same,GI50,HT29 colon,10.5 nM
same,TGI,HT29 colon,5520 nM
same,GI50,IGROV1 ovarian,24.9 nM
same,TGI,IGROV1 ovarian,4380 nM
same,GI50,K-562 leukemia,49.2 nM
same,TGI,K-562 leukemia,28200 nM
same,GI50,KM12 colon,172 nM
same,TGI,KM12 colon,11300 nM
same,GI50,LOX IMVI melanoma,79.1 nM
same,TGI,LOX IMVI melanoma,2550 nM
same,GI50,M14 melanoma,888 nM
same,TGI,M14 melanoma,23500 nM
same,GI50,MALME-3M melanoma,626 nM
same,TGI,MALME-3M melanoma,30800 nM
same,GI50,MCF7 breast,708 nM
same,TGI,MCF7 breast,27100 nM
same,GI50,MDA-MB-231 breast,33 nM
same,TGI,MDA-MB-231 breast,530 nM
same,GI50,MDA-MB-435,1390 nM
same,TGI,MDA-MB-435,18100 nM
same,GI50,MOLT-4 leukemia,5 nM
same,TGI,MOLT-4 leukemia,18600 nM
same,GI50,NCI-H226 lung,125 nM
same,TGI,NCI-H226 lung,3160 nM
same,GI50,NCI-H23 lung,68.2 nM
same,TGI,NCI-H23 lung,6970 nM
same,GI50,NCI-H460 lung,2680 nM
same,TGI,NCI-H460 lung,18700 nM
same,GI50,NCI-H522 lung,1140 nM
same,TGI,NCI-H522 lung,19500 nM
same,GI50,NCI/ADR-RES ovarian,923 nM
same,TGI,NCI/ADR-RES ovarian,25900 nM
same,GI50,OVCAR-3 ovarian,638 nM
same,TGI,OVCAR-3 ovarian,5190 nM
same,GI50,OVCAR-4 ovarian,215 nM
same,TGI,OVCAR-4 ovarian,4920 nM
same,GI50,OVCAR-5 ovarian,673 nM
same,TGI,OVCAR-5 ovarian,6420 nM
same,GI50,OVCAR-8 ovarian,98.9 nM
same,TGI,OVCAR-8 ovarian,8760 nM
same,GI50,PC-3 prostate,547 nM
same,TGI,PC-3 prostate,9180 nM
same,GI50,RPMI-8226 leukemia,5.38 nM
same,TGI,RPMI-8226 leukemia,139 nM
same,GI50,RXF 393 renal,389 nM
same,TGI,RXF 393 renal,13800 nM
same,GI50,SF-268 CNS,88.1 nM
same,TGI,SF-268 CNS,12500 nM
same,GI50,SF-295 CNS,71.5 nM
same,TGI,SF-295 CNS,19900 nM
same,GI50,SF-539 CNS,872 nM
same,TGI,SF-539 CNS,6040 nM
same,GI50,SK-MEL-2 melanoma,4000 nM
same,TGI,SK-MEL-2 melanoma,21700 nM
same,GI50,SK-MEL-28 melanoma,1290 nM
same,TGI,SK-MEL-28 melanoma,10200 nM
same,GI50,SK-MEL-5 melanoma,347 nM
same,TGI,SK-MEL-5 melanoma,7510 nM
same,GI50,SK-OV-3 ovarian,6750 nM
same,TGI,SK-OV-3 ovarian,22900 nM
same,GI50,SN12C renal,144 nM
same,TGI,SN12C renal,4040 nM
same,GI50,SNB-19 CNS,126 nM
same,TGI,SNB-19 CNS,4940 nM
same,GI50,SNB-75 CNS,445 nM
same,TGI,SNB-75 CNS,2410 nM
same,GI50,SR leukemia,5 nM
same,TGI,SR leukemia,18800 nM
same,GI50,SW-620 colon,64.1 nM
same,TGI,SW-620 colon,5680 nM
same,GI50,T-47D breast,2070 nM
same,TGI,T-47D breast,11300 nM
same,GI50,TK-10 renal,1270 nM
same,TGI,TK-10 renal,22100 nM
same,GI50,U251 CNS,166 nM
same,TGI,U251 CNS,3630 nM
same,GI50,UACC-257 melanoma,8890 nM
same,TGI,UACC-257 melanoma,25100 nM
same,GI50,UACC-62 melanoma,372 nM
same,TGI,UACC-62 melanoma,2030 nM
same,GI50,UO-31 renal,541 nM
same,TGI,UO-31 renal,6840 nM

# Source: PubChem BioAssay (NCI)
